Results as given in patent publication US7423025B2 (MUSC Foundation for Research Development, priority 2005, dated 2008).
“Also recorded” adds a separate entry of the source.

Key:
[1] = tested on: Langendorff perfused mouse heart; experiment: Ischemia/reperfusion model on Langendorff perfused (isolated) mouse heart, cardioprotective activity; conditions: for maximum ischemic contracture, in words / time until onset of ischemic contracture, in words: 5 min pretreatment before 40 min ischemia; for cardiac tissue necrosis / infarction area by TTC staining, in words: 5 min pretreatment before ischemia-reperfusion; for infarction area (TTC staining, percentage of area) / maximum ischemic contracture: 5 min pretreatment; for infarction area (TTC staining, percentage of area) / maximum ischemic contracture / onset of contracture (time until onset of ischemic contracture): 40 min global ischemia; for infarction area (TTC staining, percentage of area): 60 min reperfusion, negative control 58.3±5.8%; for infarction area (TTC staining, percentage of area) / maximum ischemic contracture / onset of contracture (time until onset of ischemic contracture) / functional recovery (% rate pressure product): Mean±SEM; for maximum ischemic contracture: negative control 105.0±6.8 cmH2O; for onset of contracture (time until onset of ischemic contracture): negative control 10.5±1.0 min; for functional recovery (% rate pressure product): after 40 min ischemia and reperfusion, negative control 21.3±1.4; for functional recovery of contractility (% RPP), in words: upon reperfusion after 40 min ischemia
L6 myoblasts = experiment: Azide-induced Pasteur effect in L6 myoblasts measured by microphysiometer; format: cell-based; conditions: sodium azide 5 mM, 10 min exposure, normalized to first azide exposure 30 min prior
Description: FIG. 5 is a graph showing increase of the azide-induced Pasteur effect on L6 myoblasts by L-3′-AM-MECA (2) and L-3′-ADMdA (1). Percent changes in extracellular acidification rates upon treatment of L6 cells with sodium azide (5 mM) are shown. Responses are the average for 10 min exposure and these are normalized to the increase measured for the first exposure of the same cells to azide 30 min prior. Typically the second exposure causes a diminished Pasteur effect (see control). Error bars are SEM for n=3-5. * Statistically different from negative control (IR).
The ability of increasing the azide-induced Pasteur in L6 myoblasts was measured by microphysiometer.

[2] = molecular target: S-adenosyl-L-homocysteine hydrolase (Homo sapiens, UniProt P23526); conditions: cited from earlier work
Sequence of S-adenosyl-L-homocysteine hydrolase (P23526 whole entry, species assumed): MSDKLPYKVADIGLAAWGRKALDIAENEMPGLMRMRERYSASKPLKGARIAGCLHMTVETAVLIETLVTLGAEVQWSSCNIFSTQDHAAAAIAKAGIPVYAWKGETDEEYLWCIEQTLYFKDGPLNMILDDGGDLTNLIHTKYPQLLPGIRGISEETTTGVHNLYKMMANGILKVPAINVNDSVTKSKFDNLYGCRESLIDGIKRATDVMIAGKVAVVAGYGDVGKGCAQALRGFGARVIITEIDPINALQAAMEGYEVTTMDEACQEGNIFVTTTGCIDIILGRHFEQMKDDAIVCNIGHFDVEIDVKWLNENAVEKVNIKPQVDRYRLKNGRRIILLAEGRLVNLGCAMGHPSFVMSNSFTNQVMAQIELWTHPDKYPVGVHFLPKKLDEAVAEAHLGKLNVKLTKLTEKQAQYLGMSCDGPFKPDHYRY

[3] = tested on: mammalian nucleoside transporters; conditions: cited from earlier work

Compound | maximum ischemic contracture, in words [1] | time until onset of ischemic contracture, in words [1] | cardiac tissue necrosis / infarction area by TTC staining, in words [1] | infarction area (TTC staining, percentage of area) [1] [%] | maximum ischemic contracture [1] [cmH2O] | onset of contracture (time until onset of ischemic contracture) [1] [min] | functional recovery (% rate pressure product) [1] | functional recovery of contractility (% RPP), in words [1] | increase of azide-induced Pasteur effect (extracellular acidification rate) (L6 myoblasts) [%] | cardiac standstill during treatment ([1]; during 5 min perfusion before ischemia, adenosine at 50 μM) | functional recovery of contractility (% RPP), in words ([1]; listed as L-3′-AM-MECA) | activity on animal enzymes such as S-adenosyl-L-homocysteine hydrolase [2] | interaction with mammalian nucleoside transporters [3]
Nc1ncnc2c1ncn2[C@@H]1O[C@H](CO)[C@@H](O)[C@H]1O [adenosine, reference compound] | lower maximal | delayed time until onset of ischemic contracture | significantly less evidence of necrosis | 24.6±5.8 | 74.1±15.6 | 13.6 ± 0.6 | 30.7±3.4 cmH2O/s % rate pressure product | significantly increased recovery of function |  |  |  |  | 
CN(C)c1ncnc2c1ncn2[C@H]1O[C@@H](CO)[C@H](N)[C@@H]1O [Compound 1, L-3′-amino-3′-deoxy-N^6-dimethyladenosine] | significant decrease of maximum ischemic contracture; also recorded: significantly decreased maximum ischemic contracture | increasing the time until onset of ischemic contracture | protective effect that is comparable or higher than adenosine; also recorded: showed decrease of cardiac tissue necrosis | 39.8±5.7 | 74.3±7.8 | 14.5 ± 0.9 | 32.2±3.7 cmH2O/s % rate pressure product | significant functional recovery of contractility | 136 | neither showed cardiac standstill during treatment; also recorded: neither (1) nor (2) induce cardiac standstill |  |  | 
CNC(=O)[C@H]1O[C@@H](n2cnc3c(N)ncnc32)[C@H](O)[C@@H]1O [MECA, reference compound] |  |  |  |  |  |  |  |  | 115 |  |  |  | 
CNC(=O)[C@@H]1O[C@H](n2cnc3c(NC)ncnc32)[C@@H](O)[C@H]1N [Compound 2, L-3′-amino-3′-deoxy-N^6-methyladenosine-5′-N-methyluronamide] | significant decrease of maximum ischemic contracture; also recorded: significantly decreased maximum ischemic contracture | does not show a significant effect; also recorded: did not significantly alter this parameter | protective effect that is comparable or higher than adenosine; also recorded: showed decrease of cardiac tissue necrosis | 31.8±5.4 | 87.6±6.3 |  |  | did not show significant functional recovery | 128 |  | did not show any significant effect |  | 
OC[C@H]1O[C@@H](n2cnc3c(NC4CCCC4)nc(Cl)nc32)[C@H](O)[C@@H]1O [CCPA, reference compound] |  |  |  |  |  |  |  |  | 19 |  |  |  | 
Nc1ncnc2c1ncn2[C@H]1O[C@@H](CO)[C@H](O)[C@@H]1O [L-adenosine] |  |  |  |  |  |  |  |  |  |  |  | inactive | does not interact
